Measurements reported in patent publication US7910723B2, “IG20 splice variants therapeutics for cancer” (The Board of Trustees of the University of Illinois, priority 2006, dated 2011).

Experiments:
Format in all cases: cell-based
MADD [1] = assay: Phosphorylation of exogenous wtMADD in HEK293 cells (anti-phospho antibodies); conditions: HEK293 transfected with wtMADD; LY 10 μM 1 h, IGF-1 150 ng/ml 20 minutes
Description: (A) In vitro phosphorylation of rMADD by Akt. GST-wtMADD or -MADD mutants were expressed in bacteria, purified, and then incubated with rAkt and γ[^32P] ATP. After 1 h incubation at 30° C., the products were resolved on SDS-PAGE and ^32P-labeled proteins were visualized by autoradiography. (B) MADD is labeled by [^32P]orthophosphate in vivo. HEK293 cells were transfected with wtMADD or MADD mutant constructs. Twenty-four hours after transfection cells were incubated with 0.3 mCi/ml [32P]orthophosphate for 6 h. MADD was immunoprecipitated with an anti-YFP antibody. The precipitated MADD was separated by SDS-PAGE, transferred to a nitrocellulose membrane, and subjected to autoradiography. Loaded MADD was visualized by staining the same membrane with an anti-YFP antibody. (C) HEK293 cells were transfected with cDNAs for wtMADD or MADD mutants and. 36 h later the cells were harvested for immunoblotting using the anti-phospho-S-70, -T-173 or -T-1041 antibodies. An anti-YFP antibody was used to detect exogenous MADD. (D) HEK293 cells were transfected with wtMADD and 24 hours later cells were serum starved for 20 h. Subsequently, they were treated with LY (10 μM) for 1 h and/or IGF-1 (150 ng/ml) for 20 minutes. The cell lysates were immunoblotted and probed with anti phospho-specific antibodies or an anti-YFP antibody. […]

MADD [2] = assay: Phosphorylation of endogenous MADD in HeLa cells (anti-phospho antibodies); conditions: LY 10 μM 1 h, IGF-1 150 ng/ml 20 minutes
DR4 = assay: Association of exogenous MADD with DR4 in HEK293 cells (immunoprecipitation)
Description: (A) Phosphorylation status of MADD could influence its binding to DR4. HEK293 cells were transfected with wtMADD or MADD mutants. 36 h after transfection, the cells were harvested for immunoprecipitation using an anti-DR4 antibody followed by immunoblotting using an anti-YFP antibody to detect exogenous MADD. The membrane was reprobed with an anti-DR4 antibody to show the protein loading. (B) PI3K can influence the association of exogenous MADD with DR4. HEK293 cells were transfected with wtMADD. Twenty four hours after transfection, the cells were serum starved for 20 h. Further, they were treated with LY (10 μM) for 1 h, IGF-1 (150 ng/ml) for 20 minutes. Immunoprecipitation using an anti-DR4 antibody was followed by immunoblotting using anti-YFP or anti-DR4 antibody. (C) Akt can influence exogenous MADD association with DR4. HEK293 cells were co-transfected with wtMADD along with DN-Akt or the empty vector pcDNA3.1 (pcDNA). Thirty six hours after transfection, the cells were harvested for immunoprecipitation using anti-DR4 antibody followed by immunoblotting with an anti-YFP or an anti-DR4 antibody. (D) PI3K can influence the association of endogenous MADD with DR4. HeLa cells were serum starved for 20 h, then treated with LY (10 μM) for 1 h, IGF-1 (150 ng/ml) for 20 minutes. Immunoprecipitation using an anti-DR4 antibody was followed by immunoblotting with an anti-MADD or an anti-DR4 antibody. (E) Akt can influence the association of endogenous MADD with DR4. HeLa cells were transfected with DN-Akt or pcDNA. Thirty six hours after transfection, the cells were collected for immunoprecipitation using an anti-DR4 antibody followed by immunoblotting with an anti-MADD antibody.
MADD can bind to DR4 and thereby block the activation of the extrinsic apoptotic pathway. […] Stimulation of PI3K by IGF-1 increased, while inhibition by LY reduced, the association between wtMADD and DR4 (FIG. 15B). […] This interaction was reduced in the presence of LY (FIG. 15D) or DN-Akt (FIG. 15E).
Immunoprecipitation. Immunoprecipitations were performed using standard procedures. The samples were precleared with 10% (vol/vol) Protein-A agarose (Roche) for 1 h on a rocking platform. Specific antibodies were added and rocked for 1 h. Immunoprecipitates were captured by incubating with 10% (vol/vol) Protein-A agarose for an hour. The agarose beads were spun down and washed three times with NET/NP40 buffer (150 mM NaCl, 2 mM EDTA, 50 mM Tris-HCl pH 7.5, 0.1% NP-40). The antigens were released and denatured by adding SDS sample buffer. Immunoblots were prepared and analysed as described above.

Akt and MADD = assay: TRAIL treatment of HeLa cells: Akt and MADD phosphorylation, caspase-8 activation (immunoblot); conditions: TRAIL 50 ng/ml
Description: (A) TRAIL treatment reduces the levels of Akt and MADD phosphorylation, and leads to caspase-8 activation. Hela cells were treated with TRAIL (50 ng/ml). The phosphorylation level of Akt was analyzed by immunoblotting using an anti-phospho Akt antibody. The phosphorylation levels of MADD was analyzed by immunoblotting using the anti-phospho T1041 antibody. Caspase-8 activation was analyzed by immunoblotting using an anti-caspase-8 antibody. (B) TRAIL induces FADD-procaspase-8 binding depending upon MADD phosphorylation status. HeLa cells were transfected either with caAkt or pcDNA3.1 empty vector. Cells were treated with TRAIL for 1 h. The MADD phosphorylation was analyzed by immunoblotting using the anti-phospho T1041 antibody. The association of procaspase-8 and FADD was analyzed by immunoprecipitation using an anti-FADD antibody followed by immunoblotting using an anti-caspase-8 antibody. […] 24 h later cells were treated with TRAIL (50 ng/ml) for 4 hours and caspase-8 activity was analyzed. *p<0.05 vs TRAIL+caAkt. […] The localizations of phosphorylated and nonphosphorylated forms of MADD in the membrane and cytosolic fractions were analyzed by immunoblotting using the anti-phospho T1041 antibody. […] The Bax distribution in cytoplasm and HM was analyzed by immunoblotting using an anti-Bax antibody. […] The distributions of Bax in cytoplasm and HM were analyzed as described for (E). […]

Row | Substance | S70, T173 and T1041 phosphorylation levels of MADD (MADD [1]) | Phosphorylation of endogenous MADD (MADD [2]) | Association of exogenous MADD with DR4 (DR4) | Caspase-8 activation (Akt and MADD) | Levels of phosphorylation of Akt and MADD (Akt and MADD)
1 | insulin-like growth factor-1 [IGF-1] | increased | phosphorylated at all three sites | increased |  | 
2 | tumor necrosis factor-related apoptosis-inducing ligand [TRAIL] |  |  |  | concomitant activation of caspase-8 | reduced
